In ChEMBL document CHEMBL6092168, “Identification of novel indolinone derivatives as CTSC inhibitors to treat inflammatory bowel disease by modulating inflammatory factors” (Eur J Med Chem, 2024):
Calls of active or inactive are those of the source. The calls are words filed in the database; no cut-off is given here.

Tests used:
Mus musculus [1] = test: Anti-inflammatory activity in DSS-induced ulcerative colitis male C57BL/6 mouse model assessed as increase in IL-10 expression in serum administered via gavage for 10 days by ELISA; assay type: functional, organism-based; details: dose 15-60 mg/kg, time 10.0 day
RAW264.7 [2] = test: Anti-inflammatory activity in LPS-stimulated mouse RAW264.7 cells assessed as reduction in GM-CSF production incubated for 24 hrs by ELISA; assay type: functional, cell-based; details: dose 0.62-5 µM
Mus musculus [3] = test: Anti-inflammatory activity in DSS-induced ulcerative colitis male C57BL/6 mouse model assessed as reduction in proteinase 3 level in serum at 60 mg/kg administered via gavage for 10 days relative to control; assay type: functional; set-up: scale not given: the % may be the effect or the level left
[4] = biological target: T1, Cathepsin G (Homo sapiens) (UniProt P08311); test: Inhibition of Cathepsin G in human U-937 cells using N-Suc-Ala-Ala-Pro-Phe-pNA as substrate at 10 uM incubated for 5 days by […] based microplate reader analysis relative to control; assay type: cell-based; details: time 5.0 day
T1 sequence (whole entry): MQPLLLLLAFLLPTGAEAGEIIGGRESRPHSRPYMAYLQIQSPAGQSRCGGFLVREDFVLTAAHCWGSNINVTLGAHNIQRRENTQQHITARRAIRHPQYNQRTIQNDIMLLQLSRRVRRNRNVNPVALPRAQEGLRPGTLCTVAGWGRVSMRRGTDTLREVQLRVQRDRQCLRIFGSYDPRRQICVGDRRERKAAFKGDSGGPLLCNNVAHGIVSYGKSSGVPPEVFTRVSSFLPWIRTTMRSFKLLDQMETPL

[5] = biological target: T2, Myeloblastin (Mus musculus) (UniProt Q61096); test: Induction of proteinase 3 degradation in C57BL/6 mouse bone marrow cells assessed as residual activity at 10 uM incubated for 48 hrs by Western blot analysis relative to control; assay type: cell-based; details: Bone marrow cell
T2 sequence (whole entry): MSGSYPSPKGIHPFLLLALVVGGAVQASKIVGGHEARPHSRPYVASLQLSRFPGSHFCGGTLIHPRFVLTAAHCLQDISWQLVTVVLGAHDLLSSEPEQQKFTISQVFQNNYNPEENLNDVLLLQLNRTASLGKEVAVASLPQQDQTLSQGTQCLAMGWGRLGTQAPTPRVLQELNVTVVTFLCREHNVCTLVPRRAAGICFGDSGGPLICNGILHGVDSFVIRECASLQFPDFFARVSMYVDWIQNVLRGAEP

Mus musculus [6] = test: Anti-inflammatory activity in DSS-induced ulcerative colitis male C57BL/6 mouse model assessed as reduction in Cathepsin C level in colon at 15 to 30 mg/kg administered via gavage for 10 days; assay type: functional, organism-based; details: dose 15-30 mg/kg, time 10.0 day
RAW264.7 [7] = test: Anti-inflammatory activity in LPS-stimulated mouse RAW264.7 cells assessed as reduction in IL-6 production incubated for 24 hrs by ELISA; assay type: functional, cell-based; details: dose 0.62-5 µM
Mus musculus [8] = test: Anti-inflammatory activity in DSS-induced ulcerative colitis male C57BL/6 mouse model assessed as increase in colon length at 60 mg/kg administered via gavage for 10 days; assay type: functional, organism-based; details: time 10.0 day
[9] = biological target: T3, Cathepsin G (Mus musculus) (UniProt P28293); test: In vivo inhibition of Cathepsin G in C57BL/6 mouse assessed as reduction in cathepsin G activity in blood administered orally once daily for 6 days by fluorescence based microplate reader; assay type: functional, organism-based; details: dose 5-30 mg/kg, route po, time 6.0 day
T3 sequence (whole entry): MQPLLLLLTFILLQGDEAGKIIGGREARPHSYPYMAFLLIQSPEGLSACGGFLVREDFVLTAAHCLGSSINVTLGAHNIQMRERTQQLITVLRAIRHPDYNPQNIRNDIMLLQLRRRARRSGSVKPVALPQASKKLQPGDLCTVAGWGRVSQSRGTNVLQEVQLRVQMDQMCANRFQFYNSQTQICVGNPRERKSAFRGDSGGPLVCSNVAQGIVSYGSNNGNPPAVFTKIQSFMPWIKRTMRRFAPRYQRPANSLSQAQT

[10] = biological target: T4, Neutrophil elastase (Mus musculus) (UniProt Q3UP87); test: Induction of neutrophil elastase degradation in C57BL/6 mouse bone marrow cells at 10 uM incubated for 24 hrs by Western blot analysis; assay type: cell-based; details: Bone marrow cell
T4 sequence (whole entry): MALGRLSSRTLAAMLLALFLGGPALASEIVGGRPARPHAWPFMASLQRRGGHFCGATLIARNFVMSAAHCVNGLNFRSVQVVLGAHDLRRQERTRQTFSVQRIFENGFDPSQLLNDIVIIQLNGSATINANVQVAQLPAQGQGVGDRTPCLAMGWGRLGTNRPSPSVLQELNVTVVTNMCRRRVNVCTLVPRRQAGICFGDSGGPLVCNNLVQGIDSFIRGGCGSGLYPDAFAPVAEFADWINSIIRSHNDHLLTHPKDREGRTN

[11] = Apparent permeability in human Caco-2 cells incubated for 90 min by LC-MS/MS analysis; assay type: ADME, cell-based
[12] = biological target: T3, Cathepsin G (Mus musculus); test: In vivo inhibition of Cathepsin G in C57BL/6 mouse assessed as reduction in cathepsin G activity in bone marrow administered orally once daily for 6 days by fluorescence based microplate reader; assay type: functional, organism-based; details: dose 5-30 mg/kg, route po, time 6.0 day
Mus musculus [13] = test: Anti-inflammatory activity in DSS-induced ulcerative colitis male C57BL/6 mouse model assessed as reduction in cathepsin G level in serum at 15 to 30 mg/kg administered via gavage for 10 days; assay type: functional, organism-based; details: dose 15-30 mg/kg, time 10.0 day
[14] = biological target: T4, Neutrophil elastase (Mus musculus); test: In vivo inhibition of neutrophil elastase in C57BL/6 mouse assessed as reduction in neutrophil elastase activity in blood at 30 mg/kg, po administered once daily for 6 days by fluorescence based microplate reader relative to control; assay type: functional, organism-based; details: time 6.0 day
[15] = Acute toxicity in ICR mouse assessed as lung pathological change at 1500 mg/kg, po administered daily for 7 days by H and E staining based analysis; assay type: organism-based; details: in vivo, 168 h, time 7 day
Mus musculus [16] = test: Anti-inflammatory activity in DSS-induced ulcerative colitis male C57BL/6 mouse model assessed as reduction in neutrophil elastase level in serum at 60 mg/kg administered via gavage for 10 days relative to control; assay type: functional; set-up: scale not given: the % may be the effect or the level left; details: time 10 day
[17] = biological target: T5, Dipeptidyl peptidase 1 (Mus musculus) (UniProt P97821); test: In vivo inhibition of Cathepsin C in C57BL/6 mouse assessed as reduction in cathepsin C activity in bone marrow at 15 mg/kg, po administered once daily for 6 days by fluorescence based microplate reader relative to control; assay type: functional, organism-based; details: time 6.0 day
T5 sequence (whole entry): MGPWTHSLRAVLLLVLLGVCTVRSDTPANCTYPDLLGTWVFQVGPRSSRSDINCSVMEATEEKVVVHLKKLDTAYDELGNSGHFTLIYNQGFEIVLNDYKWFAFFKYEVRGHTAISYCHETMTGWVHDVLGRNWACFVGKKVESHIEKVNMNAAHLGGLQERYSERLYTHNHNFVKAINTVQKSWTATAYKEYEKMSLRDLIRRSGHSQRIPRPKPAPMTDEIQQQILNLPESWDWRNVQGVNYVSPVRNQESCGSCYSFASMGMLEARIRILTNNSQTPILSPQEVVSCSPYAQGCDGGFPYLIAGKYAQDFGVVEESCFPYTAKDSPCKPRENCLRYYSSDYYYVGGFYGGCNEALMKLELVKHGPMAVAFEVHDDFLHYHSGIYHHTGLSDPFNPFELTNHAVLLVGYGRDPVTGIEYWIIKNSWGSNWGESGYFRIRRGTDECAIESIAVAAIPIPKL

Question: For `O=C1Nc2c(cccc2-c2ccc(NC3CCOCC3)cc2)/C1=C/c1ccnc2ccccc12`, which Activity (Mus musculus [1]) is on record?
Answer: Its Activity is “Dose-dependent-effect; Significant Increase Observed In High Dose Group”.

Question: And the Activity (RAW264.7 [2])?
Answer: Its Activity is “Dose-dependent-effect”.

Question: What about the Activity (Mus musculus [3]; time 10 day) of the same compound?
Answer: The Activity was 54%.

Question: And the Activity (Mus musculus [3]; time 10.0 day)?
Answer: Its Activity is “Active”.

Question: What about the inhibition [4] of the same compound?
Answer: The inhibition was 17.2%.

Question: And the Activity [5]?
Answer: The Activity was 8.71%.

Question: What about the Activity (Mus musculus [6]) of the same compound?
Answer: The Activity was “inactive”.

Question: And the Activity (RAW264.7 [7])?
Answer: Its Activity is “Dose-dependent-effect”.

Question: What about the Activity (Mus musculus [8]) of the same compound?
Answer: Its Activity is “Active; Significantly More Effective Than In Mesalazine Treatment Group”.

Question: And the inhibition [9]?
Answer: Its inhibition is “Dose-dependent-effect”.

Question: What about the Activity [10] of the same compound?
Answer: The Activity was “Active”.

Question: And the Papp at 1.5 h [11]?
Answer: Its Papp at 1.5 h is 3.2 ×10⁻⁶ cm/s.

Question: What about the inhibition [12] of the same compound?
Answer: Its inhibition is “Dose-dependent-effect”.

Question: What about the Activity (Mus musculus [13]) of the same compound?
Answer: The Activity was “inactive”.

Question: And the inhibition [14]?
Answer: Its inhibition is 42.9%.

Question: What about the Activity [15] of the same compound?
Answer: Its Activity is “Non-toxic”.

Question: What about the Activity (Mus musculus [16]) of the same compound?
Answer: Its Activity is 52%.

Question: And the inhibition [17]?
Answer: Its inhibition is under 50%.
